Data from patent US6211223A, “Indole derivatives useful in therapy” (Pfizer Inc., priority 1997, dated 2001).

Experiments:
[1] = target: T1, cloned human ETA receptor (Homo sapiens, UniProt P25101); test: Test A: Binding Assay, competition with 125I-ET-1, Binding to ETA Receptors (selectivity versus Binding to ETB Receptors)
T1 sequence (P25101 21-427): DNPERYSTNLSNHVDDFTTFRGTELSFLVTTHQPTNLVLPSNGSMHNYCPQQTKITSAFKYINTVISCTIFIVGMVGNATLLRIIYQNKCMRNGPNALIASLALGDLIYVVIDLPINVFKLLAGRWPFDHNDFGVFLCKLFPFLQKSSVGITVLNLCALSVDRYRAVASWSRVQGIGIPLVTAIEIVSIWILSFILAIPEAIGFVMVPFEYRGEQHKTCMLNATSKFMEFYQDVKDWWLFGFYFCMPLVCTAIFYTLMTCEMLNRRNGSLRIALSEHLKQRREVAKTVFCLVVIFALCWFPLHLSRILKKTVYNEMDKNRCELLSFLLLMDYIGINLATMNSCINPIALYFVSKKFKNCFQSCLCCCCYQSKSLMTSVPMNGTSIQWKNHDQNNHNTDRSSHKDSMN
Description: Competition between test compounds and ^125 I-ET-1 binding to human endothelin receptors is determined as follows.
(§1) 25 μl of a 30 pM solution of [^125 I]Tyr^13 ET-1 (specific activity 2,200 Ci/mM) is mixed with 25 μl samples of test compound (final concentrations in the range 0.1 nM-50,000 nM). 200 μl of a solution containing cloned human ETA receptor (0.75 pmoles receptor protein/ml), 50 mM Tris, 0.5 mM CaCl2, 0.1% human serum albumen, 0.1% bacitracin, 0.05% Tween 20, pH 7.4 is added. The solution is mixed at 37° C. for 2 hours. After the incubation, the unbound ligand is separated from receptor bound ligand by filtration with a Brandel cell harvester, followed by three washes of buffer. Filter papers are counted for radioactivity, and the IC50 (the concentration of test compound at which 50% of the radiolabelled compound is unbound) determined for the concentration range tested.
as §1, with “concentration” for “concentrations in the range”, “ETB” for “ETA”, “(0.25” for “(0.75”

neointimal formation = settings: rats, balloon angioplasty; S. Douglas et al, Circ Res, 75, 1994; cited from earlier work

selectivity for ETA receptors over ETB receptors ([1]; ETA over ETB) | IC50 (ETA) relative to that of its enantiomer ([1]; fraction of the IC50 (ETA) of the (-)-enantiomer) | Ki ([1]; human ETA receptor, read-out: binding affinity for ETA receptors (Ki)) [nM] | SMILES | reduction in neointimal formation relative to control animals (neointimal formation) [%]
approximately 400 | approximately one quarter | 4.18 | COc1cc(C)ccc1S(=O)(=O)NC(=O)[C@@H](c1ccc2c(c1)OCO2)c1cn(C)c2cc(C(=O)O)ccc12 [Example 1, (S)-(+)-3-{1-(1,3-Benzodioxol-5-yl)-2-[(2-methoxy-4-methylphenyl)sulfonyl-amino]-2-oxoethyl}-1-methyl-1H-indole-6-carboxylic acid] | –
– | – | – | CCCOc1ccc2c(c1)[C@@H](c1ccc(OC)cc1OCC(=O)O)[C@H](C(=O)O)[C@H]2c1ccc2c(c1)OCO2 [SB-209670] | 50
